Measured values reported in patent US20130071854A1, “METHODS FOR THE IDENTIFICATION AND CHARACTERIZATION OF HDAC INTERACTING COMPOUNDS” (priority 2009, published 2013).
Where two headings read alike, the source gives them in different places.

Key:
EHMT2 = assay: Chemoproteomic binding profiling, K562 cell extract, SAHA/ITF2357 probe matrix (Kd app), ELSA (ELM-SANT) domain proteins group; parameters: species or system human; conditions: protein EHMT2
RERE = assay: Chemoproteomic binding profiling, K562 cell extract, SAHA/ITF2357 probe matrix (Kd app), ELSA (ELM-SANT) domain protein; parameters: species or system human; conditions: protein RERE; ELSA (ELM-SANT) domain proteins
MIER3 = assay: as above; parameters: species or system human; conditions: ELSA (ELM-SANT) domain proteins
[1] = molecular target: T1, non-HDAC targets (e.g. BZW2, ISOC2, aldehyde dehydrogenases) (Homo sapiens, UniProt O94788); assay: Chemoproteomic binding profiling, K562 cell extract, SAHA/ITF2357 probe matrix (Kd app); conditions: protein ALDH1A2; selected HDACi off-targets
T1 construct: endogenous in cells; host or cells: K562 whole cell extract
T1 sequence (O94788 1-518): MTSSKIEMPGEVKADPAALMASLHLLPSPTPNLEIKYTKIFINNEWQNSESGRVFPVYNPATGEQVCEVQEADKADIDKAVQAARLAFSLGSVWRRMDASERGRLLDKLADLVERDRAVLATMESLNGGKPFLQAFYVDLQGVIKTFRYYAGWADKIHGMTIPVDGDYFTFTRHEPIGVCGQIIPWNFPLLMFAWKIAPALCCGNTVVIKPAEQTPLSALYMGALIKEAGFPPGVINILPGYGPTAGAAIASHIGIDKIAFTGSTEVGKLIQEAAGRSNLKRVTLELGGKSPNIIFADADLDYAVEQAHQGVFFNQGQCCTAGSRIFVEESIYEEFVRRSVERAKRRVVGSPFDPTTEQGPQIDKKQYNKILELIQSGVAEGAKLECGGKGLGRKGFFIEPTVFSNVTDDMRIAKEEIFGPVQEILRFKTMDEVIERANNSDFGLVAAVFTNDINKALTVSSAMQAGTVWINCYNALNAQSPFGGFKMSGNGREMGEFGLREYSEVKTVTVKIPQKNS

[2] = molecular target: T2, non-HDAC targets (e.g. BZW2, ISOC2, aldehyde dehydrogenases) (Homo sapiens, UniProt P16152); assay: as above; conditions: protein CBR1; selected HDACi off-targets
T2 construct: Kd^app CBR1; other: protein CBR1; selected HDACi off-targets
T2 sequence (P16152 1-277): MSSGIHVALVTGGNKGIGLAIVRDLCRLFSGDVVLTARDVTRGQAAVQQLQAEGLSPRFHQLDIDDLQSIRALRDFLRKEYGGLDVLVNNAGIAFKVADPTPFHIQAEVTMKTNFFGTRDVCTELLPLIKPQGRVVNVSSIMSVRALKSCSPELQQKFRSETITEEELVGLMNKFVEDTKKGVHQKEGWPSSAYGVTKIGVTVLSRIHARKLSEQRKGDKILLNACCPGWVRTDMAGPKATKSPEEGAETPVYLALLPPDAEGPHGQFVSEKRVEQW

[3] = molecular target: T3, non-HDAC targets (e.g. BZW2, ISOC2, aldehyde dehydrogenases) (Homo sapiens, UniProt Q96AB3); assay: as above; conditions: protein ISOC2; selected HDACi off-targets
T3 construct: endogenous in cells; host or cells: K562 whole cell extract
T3 sequence (Q96AB3 1-205): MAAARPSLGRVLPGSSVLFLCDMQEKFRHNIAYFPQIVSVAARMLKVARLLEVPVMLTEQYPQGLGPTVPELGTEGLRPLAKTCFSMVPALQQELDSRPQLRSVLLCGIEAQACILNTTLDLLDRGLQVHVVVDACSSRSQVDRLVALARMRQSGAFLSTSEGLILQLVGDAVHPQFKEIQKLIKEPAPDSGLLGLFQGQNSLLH

[4] = molecular target: T4, non-HDAC targets (e.g. BZW2, ISOC2, aldehyde dehydrogenases) (Homo sapiens, UniProt Q9Y6E2); assay: as above; conditions: protein BZW2; selected HDACi off-targets
T4 construct: endogenous in cells; host or cells: K562 whole cell extract
T4 sequence (Q9Y6E2 1-419): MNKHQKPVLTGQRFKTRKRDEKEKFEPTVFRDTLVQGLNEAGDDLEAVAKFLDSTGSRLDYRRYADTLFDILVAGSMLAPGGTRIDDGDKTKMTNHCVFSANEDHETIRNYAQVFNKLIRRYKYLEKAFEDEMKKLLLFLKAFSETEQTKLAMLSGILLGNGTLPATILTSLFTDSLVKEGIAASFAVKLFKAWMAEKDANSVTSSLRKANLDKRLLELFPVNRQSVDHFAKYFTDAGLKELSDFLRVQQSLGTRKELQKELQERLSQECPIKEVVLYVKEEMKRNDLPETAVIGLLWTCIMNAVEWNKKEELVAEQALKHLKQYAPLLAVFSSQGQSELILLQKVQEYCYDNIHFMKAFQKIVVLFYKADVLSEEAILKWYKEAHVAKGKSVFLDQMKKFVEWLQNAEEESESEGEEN

[5] = molecular target: T5, non-HDAC targets (e.g. BZW2, ISOC2, aldehyde dehydrogenases) (Homo sapiens, UniProt Q08209); assay: as above; conditions: protein PPP3CA; selected HDACi off-targets
T5 construct: Kd^app PPP3CA; other: protein PPP3CA; selected HDACi off-targets

NuRD complex = assay: as above; parameters: species or system human
acetylated tubulin = assay: Cell-based tubulin acetylation assay (immunofluorescence, western blotting); parameters: species or system human; conditions: for tubulin acetylation (in words): K562 and HeLa cells, immunofluorescence and western blotting
[6] = protein CHD4, NuRD complex, read-out: Kd^app CHD4
[7] = protein GATAD2A, NuRD complex, read-out: Kd^app GATAD2A
[8] = protein GATAD2B, NuRD complex, read-out: Kd^app GATAD2B
[9] = protein MBD2, NuRD complex, read-out: Kd^app MBD2
[10] = protein MBD3, NuRD complex, read-out: Kd^app MBD3
[11] = protein MTA1, NuRD complex, read-out: Kd^app MTA1
[12] = protein MTA3, NuRD complex, read-out: Kd^app MTA3
[13] = protein MTA2, NuRD complex, read-out: Kd^app MTA2

Nc1ccccc1NC(=O)CCCCCCC(=O)Nc1ccccc1 [BML-210]
Kd (EHMT2): > 85 µM | Kd (RERE): > 85 µM | Kd (MIER3): 47 µM | Kd [1]: > 85 µM | Kd [2]: > 85 µM | Kd [3]: > 85 µM | Kd [4]: > 85 µM | Kd [5]: > 85 µM | Kd (NuRD complex; [6]): 30 µM | Kd (NuRD complex; [7]): > 85 µM | Kd (NuRD complex; [8]): 69 µM | Kd (NuRD complex; [9]): 83 µM | Kd (NuRD complex; [10]): 59 µM | Kd (NuRD complex; [11]): 15 µM | Kd (NuRD complex; [12]): 69 µM

Nc1ccccc1NC(=O)c1ccc(CNC(=O)OCc2cccnc2)cc1 [MS-275]
Kd (EHMT2): > 300 µM | Kd (RERE): > 300 µM | Kd (MIER3): > 300 µM | Kd [1]: > 300 µM | Kd [2]: > 300 µM | Kd [3]: > 300 µM | Kd [4]: > 300 µM | Kd [5]: > 300 µM | Kd (NuRD complex; read-out: Kd^app CHD4): > 300 µM | Kd (NuRD complex; read-out: Kd^app GATAD2A): > 300 µM | Kd (NuRD complex; read-out: Kd^app GATAD2B): > 300 µM | Kd (NuRD complex; read-out: Kd^app MBD2): > 300 µM | Kd (NuRD complex; read-out: Kd^app MBD3): > 300 µM | Kd (NuRD complex; read-out: Kd^app MTA1): > 300 µM | Kd (NuRD complex; read-out: Kd^app MTA2): > 300 µM | Kd (NuRD complex; read-out: Kd^app MTA3): > 300 µM

O=C(CCCCCCC(=O)Nc1ccccc1)NO [SAHA, suberoylanilide hydroxamic acid]
tubulin acetylation (in words) (acetylated tubulin): increased steady state acetylation of tubulin and histones | Kd [2]: > 10 µM | Kd [5]: > 10 µM

O=C(/C=C/c1cccc(S(=O)(=O)Nc2ccccc2)c1)NO [belinostat]
Kd [1]: > 10 µM | Kd [2]: 1.98 µM | Kd [3]: > 10 µM | Kd [4]: 2.25 µM | Kd [5]: 3.5 µM

CCCCOc1ccc(CC(=O)NO)cc1 [bufexamac]
Kd (EHMT2): 105 µM | EC50 (acetylated tubulin; Homo sapiens, HeLa cells, treated 4 h, western blotting): 2.9 µM | tubulin acetylation (in words) (acetylated tubulin): hyperacetylation of tubulin | tubulin acetylation (in words) (acetylated tubulin; listed as Bufexamac): strong increase in acetylated tubulin | Kd (RERE): 33 µM | Kd (MIER3): 165 µM | Kd [1]: 3 µM | Kd [2]: 149 µM | Kd [3]: 3 µM | Kd [4]: 3 µM | Kd [5]: 304 µM | Kd (NuRD complex; [6]): 386 µM | Kd (NuRD complex; [7]): 572 µM | Kd (NuRD complex; [8]): > 59.7 µM | Kd (NuRD complex; [10]): 409 µM | Kd (NuRD complex; [11]): 168 µM | Kd (NuRD complex; [13]): 555 µM | Kd (NuRD complex; [12]): 626 µM

CCCC(CCC)C(=O)O [valproate, valproic acid]
Kd (EHMT2): 1210 µM | tubulin acetylation (in words) (acetylated tubulin): did not affect tubulin | Kd (RERE): 3120 µM | Kd (MIER3): 344 µM | Kd [1]: > 10 µM | Kd [2]: > 10 µM | Kd [3]: > 10 µM | Kd [4]: > 10 µM | Kd [5]: > 10 µM | Kd (NuRD complex; [6]): 544 µM | Kd (NuRD complex; [7]): 1040 µM | Kd (NuRD complex; [8]): 843 µM | Kd (NuRD complex; [9]): 1300 µM | Kd (NuRD complex; [10]): 930 µM | Kd (NuRD complex; [11]): 528 µM | Kd (NuRD complex; [13]): 997 µM | Kd (NuRD complex; [12]): 667 µM
